Consider three molecules from US11384078B2, “5,6-fused-bicyclic compounds and compositions for the treatment of parasitic diseases” (NOVARTIS AG, priority 2017, dated 2022).

Common to all, as to type: cell-based
Assay [1] deals with Leishmania donovani axenic amastigote. Briefly: In vitro assay for growth inhibition of Leishmania donovani axenic amastigote (Cell TiterGlo luminescence). The conditions noted are these: Leishmania donovani, L. donovani axenic amastigotes in vitro; read-out: L. donovani amastigotes EC50. The method in brief:
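Compound-treated wells received 9600 axenic amastigotes in RPMI 1640-based medium at pH 5.5 (37 °C, 5% CO2). Growth measured as ATP luminescence (CellTiter-Glo) after 2-day incubation; DMSO and reference compounds served as controls.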
(In general: In ATP-based viability assays light output follows the ATP content of the culture.)

In assay [2] the test system is L. donovani HU3 strain in mouse peritoneal macrophages. The experiment in a line: Assay for inhibition of parasitemia of Leishmania donovani in mouse macrophages (SYBR Green nuclei count, high-content imaging). The settings on record: Leishmania donovani, Peritoneal macrophage, L. donovani in mouse peritoneal macrophages; read-out: L. donovani in Mouse Macrophages EC50. The method in brief: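 Parasite numbers were counted from SYBR Green-stained nuclei imaged by high-content microscopy after paraformaldehyde fixation and Triton permeabilization. Before this, compound was applied for 5 days at 37° C to BALB/c peritoneal macrophages (2×10^4/well) that had been exposed 24 h to 4×10^5 L. donovani HU3 amastigotes harvested from infected mouse spleens.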

Assay [3] relates to Trypanosoma cruzi amastigotes cultured in 3T3 fibroblast cells. Briefly: Assay for growth inhibition of kinetoplastid parasite Trypanosoma cruzi (beta-galactosidase Tulahuen strain, CPRG readout). The conditions noted are these: Trypanosoma cruzi, Fibroblast, T. cruzi amastigotes in 3T3 fibroblast cells; read-out: Buckner infectious T. cruzi EC50. The procedure, abridged: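 3T3 fibroblasts (1,000 cells/well) plated overnight, treated with compound in DMSO, then infected with 10,000 Lac-Z-expressing Tulahuen trypomastigotes. After 6 days, 0.6 mM CPRG with 0.6% NP-40 added for 2 h at room temperature; absorbance gives relative intracellular amastigote numbers. Benznidazole and nifurtimox serve as positive controls.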

Assay [4] deals with Trypanosoma brucei brucei (Lister 427) strain. The experiment in a line: Assay for growth inhibition against Trypanosoma brucei brucei (Cell TiterGlo ATP luminescence). The settings on record: Trypanosoma brucei, T. brucei brucei (Lister 427); read-out: T. Brucei (HAT) EC50. The procedure, abridged: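 Growth read-out is cellular ATP by CellTiter-Glo luminescence, measured 30 min after reagent addition, following 2-day incubation at 37 °C in CO2. Parasites (10,000/mL, HMI-9 plus 10% FBS and 10% serum plus) faced 10 threefold dilutions in duplicate; IC50 taken as 50% growth inhibition versus untreated.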

Structures are written as SMILES.

For `O=C(Nc1ccc(F)c(-n2cc3cc(N4CCCC4)cnc3n2)c1)N1CC(F)C1` [Compound 131, 3-fluoro-N-{4-fluoro-3-[5-(pyrrolidin-1-yl)-2H-pyrazolo[3,4-b]pyridin-2-yl]phenyl}azetidine-1-carboxamide], the EC50 in assay [1] is 7 nM; in assay [2], 5.1 nM; in assay [3], 5.2 nM; in assay [4], below 23 nM.

Consider `CC(C)c1cnc2nn(-c3cc(NC(=O)CC4CC4)ccc3F)cc2c1` [Compound 69, 2-cyclopropyl-N-{4-fluoro-3-[5-(propan-2-yl)-2H-pyrazolo[3,4-b]pyridin-2-yl]phenyl}acetamide], for which the concentration for a half-maximal effect (EC50) in assay [1] turned out to be 170 nM; in assay [2], 150 nM; in assay [3] it was 68 nM; in assay [4], 40 nM.

Turning to `O=C(Nc1ccc(F)c(-n2cc3cc(N4CC5(CCC5)C4)cnc3n2)c1)N1CC(F)C1` [Compound 243, N-[3-(5-{2-azaspiro[3.3]heptan-2-yl}-2H-pyrazolo[3,4-b]pyridin-2-yl)-4-fluorophenyl}-3-fluoroazetidine-1-carboxamide], the concentration for a half-maximal effect (EC50) in assay [1] is 2100 nM; in assay [2] it was 65 nM; in assay [3], 82 nM; in assay [4] it was 5 nM.

By EC50 is commonly meant the concentration needed to bring the measured effect to its halfway point.
